Measured values taken from US20250206779A1, “ANGIOTENSIN-(1-9) ANALOGUE BASED ON D AMINO ACIDS, PHARMACEUTICAL COMPOSITIONS AND USES THEREOF” (UNIVERSIDAD DE CHILE, priority 2021, published 2025).
Where a SMILES comes first, the peptide text is derived from it. [ ]: non-standard residue; d: D form.

Legend:
[1] = tested on: spontaneously hypertensive rats (SHR); assay: Blood pressure in spontaneously hypertensive rats; format: in vivo, rat; details: SHR, 300, 600, 1200 ng/kg/min, osmotic minipumps, 14 days
Protocol: (§1) Experimental animal model. All procedures were performed in accordance with the Guide for the Care and Use of Laboratory Animals published by the U.S. National Institutes of Health (NIH Publication 85 23, 1985) and approved by our Institutional Bioethics Committee. The animals were housed under the continuous professional monitoring of the Medical Veterinary staff in the animal facility of the Pontificia Universidad Católica de Chile, under the following conditions: 12-h light-dark cycle; 21° C. ambient temperature; 50% humidity; adequate ventilation; noise-free environment; and food and water ad libitum. Male spontaneously hypertensive rats (SHR, age 12 weeks) and normotensive Wistar Kyoto rats (WKY, 12 weeks age) were used. […] Systolic blood pressure (SBP), diastolic blood pressure (DBP) and body weight (BW) were measured at the end of the treatment period and the animals were then sacrificed.
Hemodynamic evaluations. SBP and DBP were measured twice per week by a researcher blinded to study group, using a CODA 2 noninvasive pressure device with volume-pressure recording (Kent Scientific Corporation, Torrington, CT, USA). […]

[2] = tested on: spontaneously hypertensive rats (SHR); assay: Cardiac fibrosis in SHR, picrosirius red staining; format: in vivo, rat; details: SHR, 1,200 ng/kg/min, 14 days
Protocol: as §1
Evaluation of cardiac fibrosis. […] In hypertense SHR increased picrosirius red staining was detected in the hearts, indicating the presence of interstitial collagen, a marker of cardiac fibrosis.

CC[C@@H](C)[C@@H](NC(=O)[C@@H](Cc1c[nH]cn1)NC(=O)[C@H]1CCCN1C(=O)[C@@H](Cc1ccccc1)NC(=O)[C@H](N)Cc1c[nH]cn1)C(=O)N[C@H](Cc1ccc(O)cc1)C(=O)N[C@@H](C(=O)N[C@H](CCCNC(=N)N)C(=O)N[C@H](CC(=O)O)C(=O)O)C(C)C [retro-inverse angiotensin-(1-9), NH2-^DH^DF^DP^DH^DI^DY^DV^DR^DD-COOH] (H-[dH][dF][dP][dH][dI][dY][dV][dR][dD]-OH)
diastolic blood pressure (DBP) [1]: reduced SBP and DBP in a dose-dependent manner
systolic blood pressure (SBP) [1]: reduced SBP and DBP in a dose-dependent manner
accumulation of collagen in cardiac tissue [2]: completely revert
